Article PMC4257560, “Synthesis and Functional Characterization of Substituted Isoquinolinones as MT2-Selective Melatoninergic Ligands” (PLoS ONE, 2014)
Where “and” joins values, the source holds several entries; their conditions need not be identical. Equal values may be shown once. Entries after “also recorded” stand apart in the source; their conditions may differ. Read-outs that look alike come from different tables or passages of the source.

Columns and labels:
MT2 [1] = molecular target: T1, MT2 (Homo sapiens, UniProt P49286); assay: Intracellular Ca2+ mobilization (FLIPR) in MT2-CHO cells co-expressing 16z25; format: cell-based; parameters: expressed in transfected cells; details: for Emax: percentage of melatonin (MT)-mediated stimulation of Ca2+ signal, read-out: MT2 %Resp ±SEM, Ca2+ signal
T1 sequence (P49286 1-362): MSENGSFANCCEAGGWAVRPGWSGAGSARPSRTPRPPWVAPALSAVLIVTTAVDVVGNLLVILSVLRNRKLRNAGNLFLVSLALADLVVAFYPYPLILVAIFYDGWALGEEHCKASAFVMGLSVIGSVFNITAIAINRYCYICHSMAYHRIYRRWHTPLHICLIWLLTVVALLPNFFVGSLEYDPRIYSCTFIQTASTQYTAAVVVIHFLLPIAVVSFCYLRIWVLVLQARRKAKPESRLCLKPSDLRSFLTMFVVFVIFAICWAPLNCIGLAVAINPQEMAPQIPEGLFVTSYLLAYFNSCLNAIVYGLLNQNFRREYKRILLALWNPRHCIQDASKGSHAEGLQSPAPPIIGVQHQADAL
Method: (§1) Tested compounds in different concentrations were diluted in assay buffer in 5× of the final desired concentrations in a V-bottomed microplate, and both the cell and compound plates were put into the fluorometric imaging plate reader FLIPR^TETRA (Molecular Devices, Sunnyvale, CA). […] The peak of the time course of fluorescence changes was expressed in relative fluorescence units (RFU). Dose response curves were constructed by non-linear regression using GraphPad Prism 3.

MT1 [2] = molecular target: T2, MT1 (Homo sapiens, UniProt P48039); details: for MT1 pIC50±SEM: 4°C 60 min, mean ± SEM of 3–5 trials, NSB = no specific binding for up to 30 µM
Method: (§5) Competitive receptor binding characteristics of melatonin and the 15 tested compounds towards human MT1 and MT2 stably expressed in Chinese hamster ovary (CHO) cells were determined using intact cell preparation pre-incubated with 1 nM [^3H]melatonin.
(§6) Individual melatonin receptor subtype (either MT1 or MT2) was stably co-expressed with a G protein chimera 16z25 in Chinese hamster ovary (CHO) cells, hereafter denoted as CHO-hMT1 and CHO-hMT2, respectively. […] Single cell-derived colonies of the stable lines with sufficiently high receptor density and robust responses in the fluorometric assay (as described below) were isolated from the pool of transfected cell. Usage of these clonal lines was limited to 15 passages to prevent degradation of signal detection.
(§7) Competitive binding assays were performed as described [26]. Cells were suspended in binding buffer (50 mM Tris, 2 mM MgCl2, 1 mM EGTA, pH 7.4) in the density of 1.5×10^5 cell/ml. 1 nM [^3H]melatonin and increasing concentrations of a tested compound was included. Cells were incubated at 4°C for 60 min with intermittent agitation and the reaction was stopped by rapid filtration through GF/C filters pre-soaked in 10 mM Tris, pH 7.4 and washed with 1 ml of prechilled binding buffer. Retained radioactivity was measured with Wallac 1450 Microbeta Jet scintillation counter. Competition curves were drawn as one-site competition nonlinear regression model using GraphPad Prism 3.03 to the data which were means ± SEM of 3–4 independent experiments performed in duplicates. In every assay, melatonin was included as standard reference with highly reproducible Ki values, which were calculated using the Cheng-Prusoff equation.

MT2 [3] = molecular target: T1, MT2; assay: biochemical; details: for Ki: MT2 Ki, calculated from mean pIC50 (Cheng-Prusoff), 1 nM [3H]melatonin, intact CHO cells; for Emax: read-out: MT2 %Resp±SEM (percentage of melatonin-mediated displacement of radioligand binding)
Method: as §5, §6, §7

MT1 [4] = molecular target: T2, MT1; assay: Inhibition of forskolin-stimulated cAMP accumulation in MT1-CHO cells; format: cell-based; parameters: expressed in transfected cells; details: for MT1 IC50, inhibition of cAMP production: MT1-CHO cells, 50 µM forskolin, calculated from mean pIC50, NSR = no significant response for up to 10 µM; for MT1 %Inhmax ±SEM: maximal percentage inhibition of the forskolin-elevated cAMP level, MT1-CHO
Method: (§2) Both MT1 and MT2 are classified as Gi-coupled receptors with their activation leading to inhibition of intracellular cAMP production. The ability of the tested compounds to activate the endogenously expressed Gi-mediated inhibition of cAMP production was therefore examined.
(§3) All the responses were expressed as the percentage of that induced by forskolin alone (as 100%).
(§4) 2×10^5 cells were seeded in each well of 12-well plates and grown for overnight. Each well was labeled with 1 ml of [^3H]adenine (1 µCi/ml) in F-12K medium containing 1% FBS (vol/vol) for overnight. The labeling media were then replaced by 1 ml of 20 mM HEPES-buffered F-12K containing 1 mM isobutylmethylxanthine (IBMX) and the tested compounds at desired concentrations, and incubated at 37°C for 30 min. The reaction was stopped by aspiration and adding 1 ml prechilled 5% trichloroacetic acid (w/v) with 1 mM ATP, and stored at 4°C for 30 min. [^3H]cAMP was extracted from the pool of labeled adenosine nucleotides by sequential ion-exchange chromatography as previously described. The radioactivity of labeled cAMP and total labeled nucleotide fractions separated by chromatography were estimated by scintillation counting. Inhibition curves were constructed by non-linear regression using GraphPad Prism 3.

MT1 [5] = molecular target: T2, MT1; assay: Intracellular Ca2+ mobilization (FLIPR) in MT1-CHO cells co-expressing 16z25; format: cell-based; parameters: expressed in transfected cells; details: for Ca2+ mobilization activity at MT1 (in words): MT1-CHO cells, maximal concentration tested 10 µM
Method: as §1

MT2 [6] = molecular target: T1, MT2; details: for displacement of pre-incubated [3H]melatonin at MT2 (in words): competitive binding, intact CHO cells
Method: as §5, §6, §7

MT2 [7] = molecular target: T1, MT2; assay: Inhibition of forskolin-stimulated cAMP accumulation in MT2-CHO cells; format: cell-based; parameters: expressed in transfected cells; details: for IC50: MT2-CHO cells, 50 µM forskolin, calculated from mean pIC50, read-out: MT2 IC50, inhibition of cAMP production; for MT2 %Inhmax ±SEM: maximal percentage inhibition of the forskolin-elevated cAMP level, MT2-CHO
Method: as §2, §3, §4

MT1 [8] = molecular target: T2, MT1; assay: biochemical; details: for Emax: read-out: MT1 %Resp±SEM (percentage of melatonin-mediated displacement of radioligand binding)
Method: as §5, §6, §7

[9] = MT2-CHO cells, FLIPR, calculated from mean pEC50, NSR = no significant response for up to 30 µM, read-out: MT2 EC50, Ca2+ mobilization
[10] = 1 nM [3H]melatonin, intact CHO cells
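For MT1 %Resp±SEM (percentage of melatonin-mediated displacement of radioligand binding) in this document: competitive radioligand displacement on intact CHO cells stably co-expressing human MT1 together with the G protein chimera 16z25, using rising concentrations of each compound.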
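For MT1 pIC50±SEM in this document: competitive radioligand displacement on intact CHO cells stably co-expressing human MT1 together with the G protein chimera 16z25, using rising concentrations of each compound.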
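For Selectivity, ratio Ki(MT1)/Ki(MT2) in this document: competition binding on intact CHO cells stably co-expressing human MT2 with G protein chimera 16z25, displacing [3H]melatonin at 4°C over 60 min, melatonin run as reference.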
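For displacement of pre-incubated [3H]melatonin at MT2 (in words) in this document: competition binding on intact CHO cells stably co-expressing human MT2 with G protein chimera 16z25, displacing [3H]melatonin at 4°C over 60 min, melatonin run as reference.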
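For selectivity toward MT2 over MT1 in this document: competition binding on intact CHO cells stably co-expressing human MT2 with G protein chimera 16z25, displacing [3H]melatonin at 4°C over 60 min, melatonin run as reference.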

T2 sequence (P48039 whole entry): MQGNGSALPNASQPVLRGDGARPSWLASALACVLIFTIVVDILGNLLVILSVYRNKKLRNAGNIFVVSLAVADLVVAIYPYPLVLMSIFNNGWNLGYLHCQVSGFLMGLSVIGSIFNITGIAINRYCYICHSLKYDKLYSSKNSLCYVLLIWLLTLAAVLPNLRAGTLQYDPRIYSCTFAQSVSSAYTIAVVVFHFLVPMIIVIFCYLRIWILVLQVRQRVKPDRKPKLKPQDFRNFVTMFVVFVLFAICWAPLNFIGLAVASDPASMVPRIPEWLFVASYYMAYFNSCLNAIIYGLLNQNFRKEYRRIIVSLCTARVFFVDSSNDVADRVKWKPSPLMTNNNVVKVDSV

Compound | EC50 (MT2 [1]; [9]) [nM] | Emax (MT2 [1]; MT2) [%] | MT1 pIC50±SEM (MT1 [2]; [10]) | melting point [°C] | IC50 (MT2 [3]) [nM] | Ki (MT2 [3]) | Emax (MT2 [3]) [%] | MT1 IC50, inhibition of cAMP production (MT1 [4]) | Ca2+ mobilization activity at MT1 (in words) (MT1 [5]) | IC50 (MT2 [7]) [nM] | MT2 %Inhmax ±SEM (MT2 [7]) [%] | IC50 (MT1 [8]) [nM] | Ki (MT1 [8]) [nM] | Emax (MT1 [8]) [%] | Selectivity, ratio Ki(MT1)/Ki(MT2) (MT2 [6]) | further results
COc1cc2c(=O)n(C)ccc2cc1OCc1ccccc1 [7a, 6-Benzyloxy-7-methoxy-2-methylisoquinolin-1(2H)-one] | 163 | 84 ± 20 | NSB ^c | 102 to 104 | 2820 | 852 nM | 78 ± 7 |  |  |  |  |  |  |  |  | concentration triggering Ca2+ signals exclusively in MT2-CHO cells (MT2 [1]; from concentration response curves, Figure 4): around 1 µM
COc1cc2c(=O)n(C)ccc2cc1OCc1cc(C)cc(C)c1 [7g, 6-(3,5-Dimethyl-benzyloxy)-7-methoxy-2-methylisoquinolin-1(2H)-one] | 110 | 83 ± 6 | NSB |  | 3470 | 1050 nM | 86 ± 2 |  |  |  |  |  |  |  |  | 
COc1cccc(COc2cc3c(=O)n(C)ccc3cc2OC)c1 [14b, 6-Methoxy-7-(3-methoxy-benzyloxy)-2-methylisoquinolin-1(2H)-one] | 48.9 | 96 ± 16 | NSB |  | 1000 | 302 nM | 92 ± 3 | NSR | could not produce any activity | 69.4 | 71±6 |  |  |  |  | fold less potent than 7b (EC50, Ca2+ signal, MT2) (MT2 [1]; relative to 7b, MT2-CHO): > 160 fold; displacement of pre-incubated [3H]melatonin at MT2 (in words) (MT2 [6]): completely displaced
COc1cc(COc2cc3c(=O)n(C)ccc3cc2OC)cc(OC)c1 [14c, 7-(3,5-Dimethoxy-benzyloxy)-6-methoxy-2-methylisoquinolin-1(2H)-one] | 228 | 71 ± 17 | NSB |  | 18200 | 5490 nM | 94 ± 11 | NSR | could not produce any activity | 326 | 58±3 |  |  |  |  | Ca2+ mobilization activity at MT2 (in words) (MT2 [1]; MT2-CHO cells, FLIPR): partial efficacy; fold less potent than 7c (Ca2+ signal, MT2) (MT2 [1]; relative to 7c, MT2-CHO): 11 fold
COc1ccc2c(=O)n(C)ccc2c1OCc1ccccc1 [15a, 5-Benzyloxyl-6-methoxy-2-methylisoquinolin-1(2H)-one] | 215 | 70 ± 9 |  | 125 to 127 | 1200 | 362 nM | 85 ± 8 |  |  |  |  | 9120 | 2070 | 84 ± 10 | 5.72 | 
COc1cccc(COc2c(OC)ccc3c(=O)n(C)ccc23)c1 [15b, 6-Methoxy-5-(3-methoxy-benzyloxy)-2-methyl-2H-isoquinolin-1-one] |  | 89 ± 20 |  |  | 5.5 | 1.7 nM and 1.66 nM | 85 ± 8 | NSR | could not produce any activity; also recorded: totally inactive | 0.81 | 61±4 | 13200 |  | 71 ± 13 | 1800 | EC50 (MT2 [1]; MT2-CHO cells, FLIPR, mean ± SEM of 3–5 trials, read-out: MT2 pEC50 ±SEM, Ca2+ mobilization (converted)): 0.145 nM; inhibition of cAMP levels in MT1-CHO cells (in words) (MT1 [4]; forskolin-stimulated): completely inactive; Ki (MT1 [2]; read-out: MT1 Ki, calculated from mean pIC50 (Cheng-Prusoff), 1 nM [3H]melatonin, intact CHO cells): 2980 nM
COc1cc(COc2c(OC)ccc3c(=O)n(C)ccc23)cc(OC)c1 [15c, 5-(3,5-Dimethoxy-benzyloxy)-6-methoxy-2-methylisoquinolin-1(2H)-one] | 4.08 | 85 ± 19 |  | 85 to 86 | 141 | 42 nM | 94 ± 13 | NSR | could not produce any activity | 40.6 | 64±3 | 9330 | 2130 | 63 ± 4 | 50.7 | fold more potent than 7c (Ca2+ signal, MT2) (MT2 [1]; relative to 7c, MT2-CHO): 5 fold; selectivity toward MT2 over MT1 (MT2 [6]; binding, Ki ratio): 51 fold; displacement of pre-incubated [3H]melatonin at MT2 (in words) (MT2 [6]): almost complete displacement
COc1ccc2c(=O)n(C)ccc2c1OCc1ccc(C)cc1 [15d, 6-Methoxy-2-methyl-5-(4-methyl-benzyloxy)-isoquinolin-1(2H)-one] | 128 | 40 ± 17 |  |  | 9550 | 2890 nM | 74 ± 11 |  |  |  |  | 3390 | 770 | 34 ± 5 | 0.27 | 
COc1ccc2[nH]cc(CCNC(C)=O)c2c1 [MT, N-acetyl-5-methoxytryptamine, reference compound] |  |  |  |  |  |  |  |  |  |  |  |  |  |  |  | MT1 %Inhmax ±SEM (MT1 [4]): 59±2%; MT1 %Inhmax ±SEM (MT1 [4]; listed as Melatonin): 60–70%; MT1 %Resp±SEM (percentage of melatonin-mediated displacement of radioligand binding) (MT1 [2]; relative to melatonin (MT)-mediated displacement): 95±2%; MT1 %Resp ±SEM, Ca2+ signal (MT1 [5]): 100±26%
COc1cc2ccn(C)c(=O)c2cc1O [compound 12, 7-Hydroxy-6-methoxy-2-methylisoquinolin-1(2H)-one] |  |  |  |  |  |  |  |  |  |  |  |  |  |  |  | Emax at 10 µM (MT2 [1]; MT2, at 10 µM, partial activation, data not shown, read-out: maximal response, Ca2+ mobilization, MT2): 53%; Emax at 10 µM (MT1 [5]; at 10 µM, partial activation, data not shown, read-out: maximal response, Ca2+ mobilization, MT1): 36%
